This note sets out measurements from patent publication US6943181B2, “Use of substituted gamma-lactone compounds as pharmaceutical preparations” (Grunenthal GmbH, priority 2001, dated 2005).

This experiment deals with T1, nitrogen monoxide synthase (NO synthase) (Rattus norvegicus, UniProt P29476).
T1 construct: the supernatant was then decanted off and frozen in portions; from tissue; host or cells: rat cerebellum (homogenate, 20,000 g supernatant)
Nature of the experiment: HTS-NOS assay (nitrogen monoxide synthase assay). Type of experiment: biochemical. As to conditions: compound at 10 μM; enzyme preparation from rat cerebella; [3H]-arginine substrate. The text has this: This assay makes it possible to determine the percentage inhibition of NO synthase by a compound of the general formula I used according to the invention by measuring NOS activity on exposure to the compound. NO synthase is here mixed under suitable conditions together with radioactively labelled arginine and the particular compound of the general formula I. After termination of the NO formation reaction at a predetermined time, the quantity of unconverted arginine is directly or indirectly determined. […] This assay may be carried out at follows: • (a) Incubation of the NO synthase with labelled arginine as the substrate in a reaction vessel, • (b) Separation of the labelled arginine from the labelled citrulline optionally arising as a product of the enzymatic reaction at a time at which the concentration of citrulline is rising, • (c) Measurement of the quantity of arginine separated in each case.
Separation is performed by means of a filter plate membrane.
Radioactive arginine is used as the substrate in this HTS-NOS assay. Depending on the type of microtitre plate (MTP), the assay volume may be selected in the range between 25 μl and 250 μl. Depending on the enzyme source used, cofactors and coenzymes are added. The batches are incubated in this microtitre plate (assay MTP) according to step (a) at room temperature and, depending on the enzyme activity used (units), lasts between 5 and 60 minutes. On completion of incubation (step (a)), the plate is placed in a cell harvester, which is equipped with an MTP which has a cation exchange membrane as a filter bottom (filter MTP). All the batches from the assay MTP are transferred into this filter MTP and suction filtered through a cation exchange filter plate, a paper filter loaded with phosphate groups. The filter MTP is then washed with buffer or water. This procedure binds the remaining substrate arginine onto the cation exchanger, while the enzymatically formed radioactive citrulline is quantitatively eluted. Once the filter MTP has been dried and scintillation liquid added, the bound arginine can be counted in the scintillation counter. Low radioactivity indicates an uninhibited NOS reaction. An inhibited enzyme reaction means that the radioactive arginine has not been converted. This means that there is a high level of radioactivity on the filter.
• Arginine, L-[2,3,4-^3H]-monohydrochloride; item no. […] The pH value of the buffer was adjusted to 7.4 at 25° C. • Washing medium: H2O Enzyme Preparation
Rat cerebella were used as the starting tissue. The animals were stunned and killed, the brain tissue, the cerebellum, was dissected out, 1 ml of enzyme preparation buffer (4° C.) was added per cerebellum, and the tissue was disrupted for 1 min at 6000 rpm in a Polytron homogeniser. The mixture was then centrifuged at 4° C. for 15 min at 20,000 g, and the supernatant was then decanted off and frozen in portions at −80° C. (discarding the precipitate).
96-Well MTPs with a well capacity of ≦250 μl were used Pipetting sequence: see table 1:
Once the pipetting operation was complete, a lid was laid on top of this MTP (assay MTP). Incubation at 25° C. (room temperature (RT)) for 5-60 min, depending on the quantity and activity of the enzyme used.
The contents of the assay MTP were then transferred with the assistance of a 96 well cell harvester into a 96 well cation exchange MTP (filter MTP) and suction filtered. A single washing with […] of H2O (from a trough) was then performed.
The plate was then dried for 1 h at 60° C. in a drying cabinet. The bottom of the filter MTP was then carefully sealed from beneath with a “back seal”. 35 μl of scintillating material were then pipetted into each well. The top of the plate was also sealed with a “top seal”. After 1 hour's waiting time, the plate was assessed on the β-counter.

Take “3-(5-Bromo-6-methyl-pyridin-2-ylamino)-5-methyl-5-naphthalen-l-yl-dihydro-furan-2-one [Example 53]”: the “NOS (% inhibition)” value came out at 40%.
In general, inhibition refers to the change of the read-out against control, counted positive when it falls. A high value points to a strong effect. Molecule `Cc1ccc(C2(C)CC(Nc3ccc4cccc(O)c4n3)C(=O)O2)c(C)c1` (stereo not shown) [Example 1, 5-(2,4-Dimethyl-phenyl)-3-(8-hydroxy-quinolin-2-ylamino)-5-methyl-dihydro-furan-2-one] showed an inhibition at 10 µM of 40%.
Turning to `Cc1cc(C)nc(NC2CC(C)(c3ccc(C)c(C)c3)OC2=O)c1` (stereo not shown) [Example 2, 5-(3,4-Dimethyl-phenyl)-3-(4,6-dimethyl-pyridin-2-ylamino)-5-methyl-dihydro-furan-2-one], the inhibition at 10 µM is 45%.
The molecule `Cc1cc(C)nc(NC2CC(C)(c3ccc(C)cc3C)OC2=O)c1` (stereo not shown) [Example 3, 5-(2,4-Dimethyl-phenyl)-3-(4,6-dimethyl-pyridin-2-ylamino)-5-methyl-dihydro-furan-2-one] had an inhibition at 10 µM of 42%.
In the case of `Cc1cc(C)nc(NC2CC(C)(c3ccc(C4CCCCC4)cc3)OC2=O)c1` (stereo not shown) [Example 4, 5-(4-Cyclohexyl-phenyl)-3-(4,6-dimethyl-pyridin-2-ylamino)-5-methyl-dihydro-furan-2-one], the inhibition at 10 µM came to 45%.
On to `Cc1cc(C)cc(C2(C)CC(Nc3cc(C)cc(C)n3)C(=O)O2)c1` (stereo not shown) [Example 5, 5-(3,5-Dimethyl-phenyl)-3-(4,6-dimethyl-pyridin-2-ylamino)-5-methyl-dihydro-furan-2-one], for which the inhibition at 10 µM amounted to 58%.
As to `Cc1ccnc(NC2CC(C)(c3ccc(C)c(C)c3)OC2=O)c1` (stereo not shown) [Example 6, 5-(3,4-Dimethyl-phenyl)-5-methyl-3-(4-methyl-pyridin-2-ylamino)-dihydro-furan-2-one], testing at 10 µM gave an inhibition of 40%.
On the same count and under the same terms, with `Cc1ccnc(NC2CC(C)(c3ccc(C)cc3C)OC2=O)c1` (stereo not shown) [Example 7, 5-(2,4-Dimethyl-phenyl)-5-methyl-3-(4-methyl-pyridin-2-ylamino)-dihydro-furan-2-one] the figure was 45%; with `Cc1ccnc(NC2CC(C)(c3ccc(C4CCCCC4)cc3)OC2=O)c1` (stereo not shown) [Example 8, 5-(4-Cyclohexyl-phenyl)-5-methyl-3-(4-methyl-pyridin-2-ylamino)-dihydro-furan-2-one], 41%.
The molecule `Cc1cccc(C2(C)CC(Nc3ccc4ccccc4n3)C(=O)O2)c1` (stereo not shown) [Example 9, 5-Methyl-3-(quinolin-2-ylamino)-5-m-tolyl-dihydro-furan-2-one] showed an inhibition at 10 µM of 51%.
`Cc1ccc(C2(C)CC(Nc3cc(C)cc(C)n3)C(=O)O2)cc1` (stereo not shown) [Example 10, 3-(4,6-Dimethyl-pyridin-2-ylamino)-5-methyl-5-p-tolyl-dihydro-furan-2-one]: the inhibition at 10 µM worked out at 61%.
Same read-out and setting: with `Cc1cccc(C2(C)CC(Nc3cc(C)cc(C)n3)C(=O)O2)c1` (stereo not shown) [Example 11, 3-(4,6-Dimethyl-pyridin-2-ylamino)-5-methyl-5-m-tolyl-dihydro-furan-2-one] the figure was 81%.
`CCOc1ccc(C2(C)CC(Nc3cc(C)cc(C)n3)C(=O)O2)cc1` (stereo not shown) [Example 12, 3-(4,6-Dimethyl-pyridin-2-ylamino)-5-(4-ethoxy-phenyl)-5-methyl-dihydro-furan-2-one]: the inhibition at 10 µM was found to be 59%.
In the case of `Cc1cnc(NC2CC(C)(c3ccc(C#N)cc3)OC2=O)c(Br)c1` (stereo not shown) [Example 13, 4-[4-(3-Bromo-5-methyl-pyridin-2-ylamino)-2-methyl-5-oxo-tetrahydro-furan-2-yl]-benzonitrile], the inhibition at 10 µM was found to be 44%.
`Cc1cnc(NC2CC(C)(c3ccc(C(C)(C)C)cc3)OC2=O)c(Br)c1` (stereo not shown) [Example 14, 3-(3-Bromo-5-methyl-pyridin-2-ylamino)-5-(4-tert-butyl-phenyl)-5-methyl-dihydro-furan-2-one] came in with an inhibition at 10 µM of 48%.
Take `CCCc1cccc(NC2CC(C)(c3ccc(C(C)(C)C)cc3)OC2=O)n1` (stereo not shown) [Example 15, 5-(4-tert-Butyl-phenyl)-5-methyl-3-(6-propyl-pyridin-2-ylamino)-dihydro-furan-2-one]: at 10 µM the inhibition was 45%.
Take `Cc1ccnc(NC2CC(C)(c3ccc(C(C)(C)C)cc3)OC2=O)c1[N+](=O)[O-]` (stereo not shown) [Example 16, 5-(4-tert-Butyl-phenyl)-5-methyl-3-(4-methyl-3-nitro-pyridin-2-ylamino)-dihydro-furan-2-one]: the inhibition at 10 µM worked out at 47%.
Regarding `Cc1nc(NC2CC(C)(c3ccc(Oc4ccccc4)cc3)OC2=O)ccc1Br` (stereo not shown) [Example 17, 3-(5-Bromo-6-methyl-pyridin-2-ylamino)-5-methyl-5-(4-phenoxy-phenyl)-dihydro-furan-2-one], testing at 10 µM gave an inhibition of 43%.
Still for that read-out and setting: in the case of `CC(C)(C)c1ccc(C2(C)CC(Nc3ncccc3[N+](=O)[O-])C(=O)O2)cc1` (stereo not shown) [Example 18, 5-(4-tert-Butyl-phenyl)-5-methyl-3-(3-nitro-pyridin-2-ylamino)-dihydro-furan-2-one] it was 40%; in that of `CC1(c2ccc(Oc3ccccc3)cc2)CC(Nc2ncccc2OCc2ccccc2)C(=O)O1` (stereo not shown) [Example 19, 3-(3-Benzyloxy-pyridin-2-ylamino)-5-methyl-5-(4-phenoxy-phenyl)-dihydro-furan-2-one], 40%.
In the case of `CC(C)(C)c1ccc(C2(C)CC(Nc3ncccc3OCc3ccccc3)C(=O)O2)cc1` (stereo not shown) [Example 20, 3-(3-Benzyloxy-pyridin-2-ylamino)-5-(4-tert-butyl-phenyl)-5-methyl-dihydro-furan-2-one], at 10 µM the inhibition was 54%.
`Cc1cc(C)nc(NC2CC(C)(c3ccc(Oc4ccccc4)cc3)OC2=O)c1` (stereo not shown) [Example 21, 3-(4,6-Dimethyl-pyridin-2-ylamino)-5-methyl-5-(4-phenoxy-phenyl)-dihydro-furan-2-one] showed an inhibition at 10 µM of 91%.
Same read-out and setting: with `Cc1cc(C)nc(NC2CC(C)(c3ccc(C(C)(C)C)cc3)OC2=O)c1` (stereo not shown) [Example 22, 5-(4-tert-Butyl-phenyl)-3-(4,6-dimethyl-pyridin-2-yl-amino)-5-methyl-dihydrofuran-2-one] the figure was 44%; with `Cc1ccnc(NC2CC(C)(c3ccc(Oc4ccccc4)cc3)OC2=O)c1` (stereo not shown) [Example 23, 5-Methyl-3-(4-methyl-pyridin-2-ylamino)-5-(4-phenoxy-phenyl)-dihydro-furan-2-one], 79%.
In turn, `Cc1ccnc(NC2CC(C)(c3ccc(C(C)(C)C)cc3)OC2=O)c1` (stereo not shown) [Example 24, 5-(4-tert-Butyl-phenyl)-5-methyl-3-(4-methyl-pyridin-2-ylamino)-dihydro-furan-2-one] came in with an inhibition at 10 µM of 84%.
`CC1(c2ccc(C#N)cc2)CC(Nc2ncc(Br)cc2[N+](=O)[O-])C(=O)O1` (stereo not shown) [Example 25, 4-[4-(5-Bromo-3-nitro-pyridin-2-ylamino)-2-methyl-5-oxo-tetrahydro-furan-2-yl]-benzonitrile] had an inhibition at 10 µM of 45%.
On the same count and under the same terms, with `CC1(c2ccc(C#N)cc2)CC(Nc2ncc(Br)cn2)C(=O)O1` (stereo not shown) [Example 26, 4-[4-(5-Bromo-pyrimidin-2-ylamino)-2-methyl-5-oxo-tetrahydro-furan-2-yl]-benzonitrile] the figure was 43%; with `CCCc1cccc(NC2CC(C)(c3cc4ccccc4s3)OC2=O)n1` (stereo not shown) [Example 27, 5-Benzo[b]thiophen-2-yl-5-methyl-3-(6-propyl-pyridin-2-ylamino)-dihydro-furan-2-one], 43%.
